Experimental data published in PubChem BioAssay (NCI).
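GI50: concentration for 50% inhibition of growth. The concentration for full growth arrest is given as TGI.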

Assays:
Experiment in all cases: inhibition of tumour cell growth, NCI panel, 384-well format
[1] = tested on: 786-0 renal
[2] = tested on: A498 renal
[3] = tested on: A549 NSCLC
[4] = tested on: ACHN renal
[5] = tested on: BT-549 breast
[6] = tested on: CAKI-1 renal
[7] = tested on: CCRF-CEM leukemia
[8] = tested on: COLO 205 colon
[9] = tested on: DU-145 prostate
[10] = tested on: EKVX NSCLC
[11] = tested on: HCC-2998 colon
[12] = tested on: HCT-116 colon
[13] = tested on: HCT-15 colon
[14] = tested on: HL-60(TB) leukemia
[15] = tested on: HOP-62 NSCLC
[16] = tested on: HOP-92 NSCLC
[17] = tested on: HS 578T breast
[18] = tested on: HT29 colon
[19] = tested on: IGROV1 ovarian
[20] = tested on: KM12 colon
[21] = tested on: LOX IMVI melanoma
[22] = tested on: M14 melanoma
[23] = tested on: MALME-3M melanoma
[24] = tested on: MCF7 breast
[25] = tested on: MDA-MB-231 breast
[26] = tested on: MDA-MB-435 melanoma
[27] = tested on: MDA-MB-468 breast
[28] = tested on: MOLT-4 leukemia
[29] = tested on: NCI-H226 lung
[30] = tested on: NCI-H23 lung
[31] = tested on: NCI-H322M lung
[32] = tested on: NCI-H460 NSCLC
[33] = tested on: NCI-H522 lung
[34] = tested on: NCI/ADR-RES ovarian
[35] = tested on: OVCAR-3 ovarian
[36] = tested on: OVCAR-4 ovarian
[37] = tested on: OVCAR-5 ovarian
[38] = tested on: OVCAR-8 ovarian
[39] = tested on: PC-3 prostate
[40] = tested on: RPMI-8226 leukemia
[41] = tested on: RXF 393 renal
[42] = tested on: SF-268 CNS
[43] = tested on: SF-295 CNS
[44] = tested on: SF-539 CNS
[45] = tested on: SK-MEL-28 melanoma
[46] = tested on: SK-MEL-5 melanoma
[47] = tested on: SK-OV-3 ovarian
[48] = tested on: SN12C renal
[49] = tested on: SNB-19 CNS
[50] = tested on: SNB-75 CNS
[51] = tested on: SR leukemia
[52] = tested on: SW-620 colon
[53] = tested on: T-47D breast
[54] = tested on: TK-10 renal
[55] = tested on: U251 glioblastoma
[56] = tested on: UACC-257 melanoma
[57] = tested on: UACC-62 melanoma
[58] = tested on: UO-31 renal

`CNC(=O)c1c(C)oc2cc(Oc3ncnc4cc(OC)c(OC)cc34)ccc12` showed a GI50 [1] of over 100 µM, a TGI [1] of over 100 µM and a GI50 [2] of over 100 µM. The TGI [2] was over 100 µM, the GI50 [3] was over 100 µM and the TGI [3] was over 100 µM. The GI50 [4] was over 100 µM, the TGI [4] was over 100 µM and the GI50 [5] was 11.5 µM. It also gave a TGI [5] of over 100 µM, a GI50 [6] of over 100 µM and a TGI [6] of over 100 µM. It also gave a GI50 [7] of over 100 µM, a TGI [7] of over 100 µM and a GI50 [8] of over 100 µM. It also gave a TGI [8] of over 100 µM, a GI50 [9] of over 100 µM and a TGI [9] of over 100 µM. It also gave a GI50 [10] of over 100 µM, a TGI [10] of over 100 µM and a GI50 [11] of over 100 µM. For the same compound, the TGI [11] was over 100 µM, the GI50 [12] was over 100 µM and the TGI [12] was over 100 µM. It also gave a GI50 [13] of over 100 µM, a TGI [13] of over 100 µM and a GI50 [14] of over 100 µM. It also gave a TGI [14] of over 100 µM, a GI50 [15] of over 100 µM and a TGI [15] of over 100 µM. For the same compound, the GI50 [16] was over 87.5 µM, the TGI [16] was over 100 µM and the GI50 [17] was 25.5 µM. The TGI [17] was over 100 µM, the GI50 [18] was over 100 µM and the TGI [18] was over 100 µM. It also gave a GI50 [19] of over 100 µM, a TGI [19] of over 100 µM and a GI50 [20] of over 100 µM. For the same compound, the TGI [20] was over 100 µM, the GI50 [21] was over 100 µM and the TGI [21] was over 100 µM. It also gave a GI50 [22] of over 100 µM, a TGI [22] of over 100 µM and a GI50 [23] of over 100 µM. For the same compound, the TGI [23] was over 100 µM, the GI50 [24] was over 100 µM and the TGI [24] was over 100 µM. For the same compound, the GI50 [25] was over 100 µM, the TGI [25] was over 100 µM and the GI50 [26] was over 100 µM. It also gave a TGI [26] of over 100 µM, a GI50 [27] of over 100 µM and a TGI [27] of over 100 µM. For the same compound, the GI50 [28] was over 87.1 µM, the TGI [28] was over 100 µM and the TGI [29] was over 100 µM. It also gave a GI50 [30] of over 100 µM, a TGI [30] of over 100 µM and a GI50 [31] of over 100 µM. The TGI [31] was over 100 µM, the GI50 [32] was over 100 µM and the TGI [32] was over 100 µM. It also gave a GI50 [33] of over 100 µM, a TGI [33] of over 100 µM and a GI50 [34] of over 100 µM. It also gave a TGI [34] of over 100 µM, a GI50 [35] of over 100 µM and a TGI [35] of over 100 µM. For the same compound, the GI50 [36] was over 100 µM, the TGI [36] was over 100 µM and the GI50 [37] was over 100 µM. The TGI [37] was over 100 µM, the GI50 [38] was over 100 µM and the TGI [38] was over 100 µM. For the same compound, the GI50 [39] was over 100 µM, the TGI [39] was over 100 µM and the GI50 [40] was over 71.1 µM. For the same compound, the TGI [40] was over 100 µM, the GI50 [41] was over 21.9 µM and the TGI [41] was over 100 µM. For the same compound, the GI50 [42] was over 100 µM, the TGI [42] was over 100 µM and the GI50 [43] was over 100 µM. It also gave a TGI [43] of over 100 µM, a GI50 [44] of 10.2 µM and a TGI [44] of over 100 µM. For the same compound, the GI50 [45] was over 100 µM, the TGI [45] was over 100 µM and the GI50 [46] was over 100 µM. The TGI [46] was over 100 µM, the GI50 [47] was over 100 µM and the TGI [47] was over 100 µM. It also gave a GI50 [48] of over 100 µM, a TGI [48] of over 100 µM and a GI50 [49] of over 100 µM. It also gave a TGI [49] of over 100 µM, a GI50 [50] of 4.3 µM and a TGI [50] of over 29.4 µM. It also gave a GI50 [51] of over 61.5 µM, a TGI [51] of over 100 µM and a GI50 [52] of over 100 µM. It also gave a TGI [52] of over 100 µM, a GI50 [53] of over 100 µM and a TGI [53] of over 100 µM. The GI50 [54] was over 100 µM, the TGI [54] was over 100 µM and the GI50 [55] was over 100 µM. For the same compound, the TGI [55] was over 100 µM, the GI50 [56] was over 100 µM and the TGI [56] was over 100 µM. It also gave a GI50 [57] of over 100 µM, a TGI [57] of over 100 µM and a GI50 [58] of over 96.2 µM. It also gave a TGI [58] of over 100 µM.
